Assay results as given in PubChem BioAssay (NCI).
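48-hour exposure; five concentrations; linearly interpolated endpoints. TGI marks complete inhibition of growth.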

Legend:
Assay in all cases: growth of human tumour cells (NCI), 48 h
786-0 renal = system: 786-0 renal
A498 renal = system: A498 renal
A549 NSCLC = system: A549 NSCLC
ACHN renal = system: ACHN renal
CAKI-1 renal = system: CAKI-1 renal
CCRF-CEM leukemia = system: CCRF-CEM leukemia
COLO 205 colon = system: COLO 205 colon
DLD-1 colon = system: DLD-1 colon
DMS 114 small cell lung = system: DMS 114 small cell lung
DMS 273 small cell lung = system: DMS 273 small cell lung
HCC-2998 colon = system: HCC-2998 colon
HCT-116 colon = system: HCT-116 colon
HCT-15 colon = system: HCT-15 colon
HL-60(TB) leukemia = system: HL-60(TB) leukemia
HOP-18 NSCLC = system: HOP-18 NSCLC
HOP-62 NSCLC = system: HOP-62 NSCLC
HOP-92 NSCLC = system: HOP-92 NSCLC
HT29 colon = system: HT29 colon
IGROV1 ovarian = system: IGROV1 ovarian
K-562 leukemia = system: K-562 leukemia
KM12 colon = system: KM12 colon
KM20L2 colon = system: KM20L2 colon
LOX IMVI melanoma = system: LOX IMVI melanoma
LXFL 529 NSCLC = system: LXFL 529 NSCLC
M14 melanoma = system: M14 melanoma
M19-MEL melanoma = system: M19-MEL melanoma
MALME-3M melanoma = system: MALME-3M melanoma
NCI-H23 lung = system: NCI-H23 lung
NCI-H460 lung = system: NCI-H460 lung
NCI-H522 lung = system: NCI-H522 lung
OVCAR-3 ovarian = system: OVCAR-3 ovarian
OVCAR-5 ovarian = system: OVCAR-5 ovarian
OVCAR-8 ovarian = system: OVCAR-8 ovarian
RPMI-8226 leukemia = system: RPMI-8226 leukemia
SF-268 CNS = system: SF-268 CNS
SF-295 CNS = system: SF-295 CNS
SF-539 CNS = system: SF-539 CNS
SK-MEL-2 melanoma = system: SK-MEL-2 melanoma
SK-MEL-28 melanoma = system: SK-MEL-28 melanoma
SK-MEL-5 melanoma = system: SK-MEL-5 melanoma
SK-OV-3 ovarian = system: SK-OV-3 ovarian
SN12C renal = system: SN12C renal
SNB-19 CNS = system: SNB-19 CNS
SNB-75 CNS = system: SNB-75 CNS
SNB-78 CNS = system: SNB-78 CNS
SR leukemia = system: SR leukemia
SW-620 colon = system: SW-620 colon
TK-10 renal = system: TK-10 renal
U251 CNS = system: U251 CNS
UACC-257 melanoma = system: UACC-257 melanoma
UACC-62 melanoma = system: UACC-62 melanoma
UO-31 renal = system: UO-31 renal
EKVX NSCLC = system: EKVX NSCLC
MOLT-4 leukemia = system: MOLT-4 leukemia
NCI-H226 lung = system: NCI-H226 lung
OVCAR-4 ovarian = system: OVCAR-4 ovarian
RXF 393 renal = system: RXF 393 renal
XF 498 CNS = system: XF 498 CNS

## Nc1ccn(CCCC(c2ccccc2)P(=O)(O)O)c(=O)n1 (stereo not drawn)
786-0 renal
  TGI: > 100 µM
A498 renal
  TGI: > 100 µM
A549 NSCLC
  TGI: > 100 µM
ACHN renal
  TGI: > 100 µM
CAKI-1 renal
  TGI: > 100 µM
CCRF-CEM leukemia
  TGI: > 100 µM
COLO 205 colon
  TGI: > 100 µM
DLD-1 colon
  TGI: > 100 µM
DMS 114 small cell lung
  TGI: > 100 µM
DMS 273 small cell lung
  TGI: > 100 µM
HCC-2998 colon
  TGI: > 100 µM
HCT-116 colon
  TGI: > 100 µM
HCT-15 colon
  TGI: > 100 µM
HL-60(TB) leukemia
  TGI: > 100 µM
HOP-18 NSCLC
  TGI: > 100 µM
HOP-62 NSCLC
  TGI: > 100 µM
HOP-92 NSCLC
  TGI: > 100 µM
HT29 colon
  TGI: > 100 µM
IGROV1 ovarian
  TGI: > 100 µM
K-562 leukemia
  TGI: > 100 µM
KM12 colon
  TGI: > 100 µM
KM20L2 colon
  TGI: > 100 µM
LOX IMVI melanoma
  TGI: > 100 µM
LXFL 529 NSCLC
  TGI: > 100 µM
M14 melanoma
  TGI: > 100 µM
M19-MEL melanoma
  TGI: > 100 µM
MALME-3M melanoma
  TGI: > 100 µM
NCI-H23 lung
  TGI: > 100 µM
NCI-H460 lung
  TGI: > 100 µM
NCI-H522 lung
  TGI: > 100 µM
OVCAR-3 ovarian
  TGI: > 100 µM
OVCAR-5 ovarian
  TGI: > 100 µM
OVCAR-8 ovarian
  TGI: > 100 µM
RPMI-8226 leukemia
  TGI: > 100 µM
SF-268 CNS
  TGI: > 100 µM
SF-295 CNS
  TGI: > 100 µM
SF-539 CNS
  TGI: > 100 µM
SK-MEL-2 melanoma
  TGI: > 100 µM
SK-MEL-28 melanoma
  TGI: > 100 µM
SK-MEL-5 melanoma
  TGI: > 100 µM
SK-OV-3 ovarian
  TGI: > 100 µM
SN12C renal
  TGI: > 100 µM
SNB-19 CNS
  TGI: > 100 µM
SNB-75 CNS
  TGI: > 100 µM
SNB-78 CNS
  TGI: > 100 µM
SR leukemia
  TGI: > 100 µM
SW-620 colon
  TGI: > 100 µM
TK-10 renal
  TGI: > 100 µM
U251 CNS
  TGI: > 100 µM
UACC-257 melanoma
  TGI: > 100 µM
UACC-62 melanoma
  TGI: > 100 µM
UO-31 renal
  TGI: > 100 µM

## O=C1C(Cl)C(c2ccc([N+](=O)[O-])cc2)N1n1cnc2ccccc2c1=O (stereo not drawn)
786-0 renal
  TGI: > 100 µM
A549 NSCLC
  TGI: > 100 µM
ACHN renal
  TGI: > 100 µM
CAKI-1 renal
  TGI: > 100 µM
CCRF-CEM leukemia
  TGI: > 100 µM
COLO 205 colon
  TGI: > 100 µM
DLD-1 colon
  TGI: > 100 µM
DMS 114 small cell lung
  TGI: > 100 µM
DMS 273 small cell lung
  TGI: > 100 µM
EKVX NSCLC
  TGI: 85.6 µM
HCC-2998 colon
  TGI: > 100 µM
HCT-116 colon
  TGI: > 100 µM
HCT-15 colon
  TGI: > 100 µM
HOP-18 NSCLC
  TGI: > 100 µM
HOP-62 NSCLC
  TGI: > 100 µM
HT29 colon
  TGI: > 100 µM
IGROV1 ovarian
  TGI: > 100 µM
K-562 leukemia
  TGI: > 100 µM
KM12 colon
  TGI: > 100 µM
KM20L2 colon
  TGI: > 100 µM
LOX IMVI melanoma
  TGI: > 100 µM
LXFL 529 NSCLC
  TGI: > 100 µM
M14 melanoma
  TGI: > 100 µM
MALME-3M melanoma
  TGI: > 100 µM
MOLT-4 leukemia
  TGI: > 100 µM
NCI-H226 lung
  TGI: > 100 µM
NCI-H23 lung
  TGI: > 100 µM
NCI-H460 lung
  TGI: > 100 µM
NCI-H522 lung
  TGI: > 100 µM
OVCAR-3 ovarian
  TGI: > 100 µM
OVCAR-4 ovarian
  TGI: 25.2 µM
OVCAR-5 ovarian
  TGI: > 100 µM
OVCAR-8 ovarian
  TGI: > 100 µM
RXF 393 renal
  TGI: 72.1 µM
SF-268 CNS
  TGI: 97.3 µM
SF-295 CNS
  TGI: 68.9 µM
SK-MEL-2 melanoma
  TGI: > 100 µM
SK-MEL-28 melanoma
  TGI: > 100 µM
SK-MEL-5 melanoma
  TGI: > 100 µM
SK-OV-3 ovarian
  TGI: 50.3 µM
SN12C renal
  TGI: > 100 µM
SNB-19 CNS
  TGI: > 100 µM
SNB-75 CNS
  TGI: 39 µM
SNB-78 CNS
  TGI: 88.1 µM
SW-620 colon
  TGI: > 100 µM
TK-10 renal
  TGI: 83.2 µM
U251 CNS
  TGI: > 100 µM
UACC-257 melanoma
  TGI: > 100 µM
UACC-62 melanoma
  TGI: > 100 µM
UO-31 renal
  TGI: > 100 µM
XF 498 CNS
  TGI: > 100 µM
